Data taken from the RepoRT retention time repository (doi:10.1021/es4044374).

Assay: RP, Waters XBridge C18, 50 × 2.1 mm, 3.5 µm, 30 °C, 0.2 mL/min, estimated dead time 0.55 min; A: water + 0.1% formic acid, pH 3; B: methanol + 0.1% formic acid, pH 3; gradient (min/%B) 0/10 4/50 17/95 25/95 25.1/10 30/10
Settings: stereoisomer not certain
With NC(=O)N1c2ccccc2C2OC2c2ccccc21 (stereo not given) [Carbamazepine-10,11-epoxide] the LC retention time was 6.3 min. Work on Cc1cccc(C)c1N(Cn1cccn1)C(=O)CS(=O)(=O)O [Metazachlor ESA] yielded an LC retention time of 5.5 min. Work on CCCCc1oc2ccc(NS(C)(=O)=O)cc2c1C(=O)c1ccc(OCCCN(CCCC)CCCC)cc1 [Dronedarone] yielded an LC retention time of 11.5 min. For CC(C)N1C(=O)c2ccccc2NS1(=O)=O [Bentazone], the LC retention time was 7.5 min. CCCC(C)C1(CC)C(=O)NC(=S)NC1=O (stereo not given) [Thiopental] showed an LC retention time of 9 min. CC(=O)NCCCS(=O)(=O)O [Acamprosate] showed an LC retention time of 1 min. Work on CC(C1CC1)C(O)(Cn1cncn1)c1ccc(Cl)cc1 (stereo not given) [Cyproconazole] yielded an LC retention time of 11.5 min. In the case of CNCC(c1ccc(OC)cc1)C1(O)CCCCC1 (stereo not given) [N-Desmethylvenlafaxine], the LC retention time is reported as 6.3 min. Compound CN(C)C(=O)Nc1ccc(Cl)c(Cl)c1 [Diuron] has an LC retention time of 8.9 min. CCC(=O)C(CC(C)N(C)C)(c1ccccc1)c1ccccc1 (stereo not given) [Methadone] gave an LC retention time of 8.4 min. O=P(O)(OCCC(F)(F)C(F)(F)C(F)(F)C(F)(F)C(F)(F)C(F)(F)F)OCCC(F)(F)C(F)(F)C(F)(F)C(F)(F)C(F)(F)C(F)(F)F [Bisperfluorooctyl phosphate] gave an LC retention time of 18.1 min. For COP(=S)(OC)Oc1nc(Cl)c(Cl)cc1Cl [Chlorpyrifos-methyl], the LC retention time was 14 min. O=C(O)C(c1ccccc1Cl)N1CCc2sccc2C1 (stereo not given) [Clopidogrel carboxylic acid] gave an LC retention time of 5.7 min. Work on COC=C(C(=O)OC)c1ccccc1Oc1cc(Oc2ccccc2C#N)ncn1 [Azoxystrobin] yielded an LC retention time of 9.9 min. With O=C1CC(C(=O)O)CC(=O)C1=C(O)C1CC1 (stereo not given) [Trinexapac] the LC retention time was 6.9 min. CNC(C)C(=O)c1ccc(C)cc1 (stereo not given) [Mephedrone] gave an LC retention time of 4.3 min. With c1ccc(C2CN3CCSC3=N2)cc1 (stereo not given) [Levamisole] the LC retention time was 2.9 min. For COCC(C)N(C(=O)CS(=O)(=O)O)c1c(C)csc1C (stereo not given) [Dimethenamide ESA], the LC retention time was 6.7 min. CCOP(=O)(OCC)Oc1cc(C)nc(C(C)C)n1 [Diazoxon] gave an LC retention time of 9.5 min. For CCNc1nc(Cl)nc(NC(C)(C)C)n1 [Terbutylazine], the LC retention time was 10.1 min. Cc1ccc2n[nH]nc2c1 [5-Methyl-1H-benzotriazole] showed an LC retention time of 5.8 min. Compound O=C(O)c1cccc(Oc2ccccc2)c1 [3-Phenoxybenzoic acid] has an LC retention time of 11.5 min. Work on O=C1NCCN1Cc1ccc(Cl)nc1 [Imidacloprid-urea] yielded an LC retention time of 4.6 min. For O=C(O)COc1nc(Cl)c(Cl)cc1Cl [Triclopyr], the LC retention time was 10.3 min. With Clc1cccc(N2CCNCC2)c1 [1-(3-Chlorophenyl)piperazine] the LC retention time was 5.2 min. For CC(C)(Oc1ccc(C(=O)c2ccc(Cl)cc2)cc1)C(=O)O [Fenofibric acid], the LC retention time was 12.6 min. CNC(=O)Nc1ccc(C(C)C)cc1 [Isoproturon-monodemethyl] showed an LC retention time of 8.6 min. In the case of Cc1nnc(-c2ccccc2)c(=O)[nH]1 [Metamitron-desamino], the LC retention time is reported as 5.1 min. For CCOC(=O)NCCOc1ccc(Oc2ccccc2)cc1 [Fenoxycarb], the LC retention time was 12.6 min. Clc1ccccc1C(c1ccccc1)(c1ccccc1)n1ccnc1 [Clotrimazole] showed an LC retention time of 8.8 min. Compound CCC(CC)OC1C=C(C(=O)O)CC(N)C1NC(C)=O (stereo not given) [Oseltamivir carboxylate] has an LC retention time of 5.1 min. Compound COc1ccc2cc(C(C)C(=O)O)ccc2c1 (stereo not given) [Naproxen] has an LC retention time of 10.2 min. For CNC(=O)CSP(=S)(OC)OC [Dimethoate], the LC retention time was 5.2 min. Nc1ccc(S(=O)(=O)O)cc1 [Sulfanilic acid] showed an LC retention time of 0.9 min. CCC(C(N)=O)N1CCCC1=O (stereo not given) [Levetiracetam] showed an LC retention time of 3 min. For CNC(=O)Nc1ccc(Cl)c(Cl)c1 [Diuron-desmethyl], the LC retention time was 8.5 min. For C=C1C(=O)NC(C)C(=O)NC(CC(C)C)C(=O)NC(C(=O)O)C(C)C(=O)NC(CCCN=C(N)N)C(=O)NC(C=CC(C)=CC(C)C(Cc2ccccc2)OC)C(C)C(=O)NC(C(=O)O)CCC(=O)N1C (stereo not given) [Microcystin-LR], the LC retention time was 10.2 min. COc1cc(OC)nc(NC(=O)NS(=O)(=O)c2ncccc2C(=O)N(C)C)n1 [Nicosulfuron] showed an LC retention time of 7.1 min. O=C(O)C=C(F)C(F)(F)C(F)(F)C(F)(F)C(F)(F)C(F)(F)F [6:2 fluorotelomer unsaturated carboxylic acid] gave an LC retention time of 13.6 min. CNCCCC(C#N)(c1ccc(OC)c(OC)c1)C(C)C (stereo not given) [D617] showed an LC retention time of 6.3 min. CCOc1nc2cccc(C(=O)O)c2n1Cc1ccc(-c2ccccc2-c2nn[nH]n2)cc1 [Candesartan] gave an LC retention time of 9.3 min. With CN(C)CCCC1(c2ccc(F)cc2)OCc2cc(C#N)ccc21 (stereo not given) [Citalopram] the LC retention time was 6.6 min. With CC(C)c1nc(CN(C)C(=O)NC(C(=O)NC(Cc2ccccc2)CC(O)C(Cc2ccccc2)NC(=O)OCc2cncs2)C(C)C)cs1 (stereo not given) [Ritonavir] the LC retention time was 13.6 min. Work on CCCCCCCCn1sccc1=O [2-Octyl-3(2H)-isothiazolone] yielded an LC retention time of 11.6 min. Work on N#Cc1nn(-c2c(Cl)cc(C(F)(F)F)cc2Cl)c(N)c1SC(F)(F)F [Fipronil-sulfide] yielded an LC retention time of 13 min. O=C(O)C(F)(F)C(F)(F)C(F)(F)C(F)(F)C(F)(F)C(F)(F)C(F)(F)C(F)(F)C(F)(F)C(F)(F)F [Perfluoroundecanoic acid] showed an LC retention time of 16.3 min. Nc1cn[nH]c(=O)c1Cl [Chloridazone-desphenyl] showed an LC retention time of 1.3 min. For CC(C)NCC(O)COc1ccc(CC(N)=O)cc1 (stereo not given) [Atenolol], the LC retention time was 2 min. CC1COC(=O)c2cc3c(cc21)C(C)(C)C(C)C3(C)C (stereo not given) [Galaxolidone] gave an LC retention time of 14.7 min. In the case of CC(NC(C)(C)C)C(=O)c1cccc(Cl)c1 (stereo not given) [Bupropion], the LC retention time is reported as 5.8 min. With CCCCNC(=O)OCC#CI [Iodocarb] the LC retention time was 8.4 min. With CCN(CC(=O)O)S(=O)(=O)C(F)(F)C(F)(F)C(F)(F)C(F)(F)C(F)(F)C(F)(F)C(F)(F)C(F)(F)F [N-Ethylperfluorooctane sulfonamidoacetic acid] the LC retention time was 16.9 min. Work on O=C(NCCN1CCOCC1)c1ccc(Cl)cc1 [Moclobemide] yielded an LC retention time of 4.5 min. Compound COc1nc(NC(C)C)nc(NC(C)C)n1 [Prometon] has an LC retention time of 6.7 min. For CNCCC(Oc1ccc(C(F)(F)F)cc1)c1ccccc1 (stereo not given) [Fluoxetine], the LC retention time was 9.2 min. With O=C(NC(=O)c1c(F)cccc1F)Nc1cc(Cl)c(F)c(Cl)c1F [Teflubenzuron] the LC retention time was 16.1 min. For Cc1cc(C2CC2)nc(Nc2ccccc2)n1 [Cyprodinil], the LC retention time was 9.4 min. With Cc1c(N)c(=O)n(-c2ccccc2)n1C [4-Aminoantipyrine] the LC retention time was 2.6 min. With FC(F)(F)c1cccc(N2CCNCC2)c1 [1-(3-(Trifluoromethyl)phenyl)piperazine] the LC retention time was 5.9 min. Compound CCC1OC(=O)C(C)C(OC2CC(C)(OC)C(O)C(C)O2)C(C)C(OC2OC(C)CC(N(C)C)C2O)C(C)(O)CC(C)CN(C)C(C)C(O)C1(C)O (stereo not given) [Azithromycin] has an LC retention time of 5.9 min. With CS(=O)(=O)c1ccc(C(=O)C2C(=O)CCCC2=O)c(Cl)c1 [Sulcotrione] the LC retention time was 6.8 min. Nc1ccc(S(=O)(=O)Nc2ccccn2)cc1 [Sulfapyridine] gave an LC retention time of 2.9 min. With O=c1[nH]sc2ccccc12 [Benzisothiazolone (BIT)] the LC retention time was 5.1 min. For CC(C)(C)C(O)(CCc1ccc(Cl)cc1)Cn1cncn1 (stereo not given) [Tebuconazole], the LC retention time was 12.8 min. NCC(O)COc1ccc(CC(N)=O)cc1 (stereo not given) [Atenolol-desisopropyl] showed an LC retention time of 1 min. In the case of NC(=O)N=C1SCCN1Cc1ccc(Cl)nc1 [Thiacloprid-amide], the LC retention time is reported as 4.6 min. Compound CNCCC(Oc1ccccc1C)c1ccccc1 (stereo not given) [Atomoxetine] has an LC retention time of 8 min. CN1C2CCC1C(C(=O)O)C(OC(=O)c1ccccc1)C2 (stereo not given) [Benzoylecgonine] gave an LC retention time of 4.6 min. With CCCCc1ncc(C=C(Cc2cccs2)C(=O)O)n1Cc1ccc(C(=O)O)cc1 [Eprosartan] the LC retention time was 6.3 min. For CCCN(CCC)C(=O)SCc1ccccc1 [Prosulfocarb], the LC retention time was 14.4 min. With COc1ccc(C(CN(C)C)C2(O)CCCCC2)cc1 (stereo not given) [Venlafaxine] the LC retention time was 6.2 min. Compound COCC(=O)N(c1c(C)cccc1C)C(C)C(=O)OC (stereo not given) [Metalaxyl] has an LC retention time of 8.7 min. Work on CCC1OC(=O)C(C)C(OC2CC(C)(OC)C(O)C(C)O2)C(C)C(OC2OC(C)CC(N(C)C)C2O)C(C)(OC)CC(C)C(=O)C(C)C(O)C1(C)O (stereo not given) [Clarithromycin] yielded an LC retention time of 9.7 min. COc1nc(NC(=O)NS(=O)(=O)c2ccccc2C(F)(F)F)nc(C(F)(F)F)n1 [Tritosulfuron] gave an LC retention time of 10.8 min. With CC1(C)CC1C(=O)NC(=CCCCCSCC(N)C(=O)O)C(=O)O (stereo not given) [Cilastatin] the LC retention time was 5.2 min. Compound N#Cc1nn(-c2c(Cl)cc(C(F)(F)F)cc2Cl)c(N)c1S(=O)(=O)C(F)(F)F [Fipronil-sulfone] has an LC retention time of 13.5 min. Work on Cn1ncc(N)c(Cl)c1=O [Chloridazone-methyl-desphenyl] yielded an LC retention time of 2.2 min. Compound c1ccc2n[nH]nc2c1 [1H-Benzotriazole] has an LC retention time of 4.4 min. CCOP(=S)(OCC)Oc1cc(C)nc(C(C)C)n1 [Diazinon] gave an LC retention time of 13 min. CCCC1COC(Cn2cncn2)(c2ccc(Cl)cc2Cl)O1 (stereo not given) [Propiconazole] gave an LC retention time of 13.1 min. Compound CC(=O)Nc1ccc(O)cc1 [Paracetamol] has an LC retention time of 2.2 min. With COC(=O)Nc1cccc(OC(=O)Nc2cccc(C)c2)c1 [Phenmedipham] the LC retention time was 9.5 min. Compound Oc1ccc(Cl)cc1 [4-Chlorophenol] has an LC retention time of 7.3 min. In the case of CCCCCCCCn1sc(Cl)c(Cl)c1=O [4,5-Dichloro-2-n-octyl-3(2H)-isothiazolone (DCOIT)], the LC retention time is reported as 15.3 min. O=C(O)COc1ccc(Cl)cc1Cl [2,4-D] showed an LC retention time of 9.1 min.
